Laboratory results reported in patent publication US20230141101A1, “PDE4 INHIBITOR COMPOUND AND MEDICAL USE THEREOF” (Suzhou Longbotai Pharmaceuticals Co., Ltd., priority 2020, published 2023).

Assays:
Format in all cases: biochemical
Conditions in all cases: 20 nM
[1] = target: T1, PDE4A1A (Homo sapiens, UniProt P27815); test: PDE4 inhibitory activity assay (FAM-cAMP enzymatic reaction), PDE4A1A
T1 construct: purchased BPS 60040
How it was run: (§1)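 Inhibition rates from a fluorescence read gave IC50 values. Each enzyme (PDE4A1A, PDE4B1, PDE4D2) sat with compound for 15 min at room temperature; FAM-cAMP then started a 30 min room-temperature reaction, ended with stop solution and left 60 min more.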

[2] = target: PDE4D2 (Homo sapiens, UniProt Q08499); test: PDE4 inhibitory activity assay (FAM-cAMP enzymatic reaction), PDE4D2
How it was run: as §1

[3] = target: T2, PDE4B1 (Homo sapiens, UniProt Q07343); test: PDE4 inhibitory activity assay (FAM-cAMP enzymatic reaction), PDE4B1
T2 construct: purchased BPS 60041
How it was run: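 Each isoform is incubated with test compound for 15 min at room temperature before FAM-cAMP substrate starts a 30-min reaction.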

Chain of PDE4D2 (Q08499 303-809): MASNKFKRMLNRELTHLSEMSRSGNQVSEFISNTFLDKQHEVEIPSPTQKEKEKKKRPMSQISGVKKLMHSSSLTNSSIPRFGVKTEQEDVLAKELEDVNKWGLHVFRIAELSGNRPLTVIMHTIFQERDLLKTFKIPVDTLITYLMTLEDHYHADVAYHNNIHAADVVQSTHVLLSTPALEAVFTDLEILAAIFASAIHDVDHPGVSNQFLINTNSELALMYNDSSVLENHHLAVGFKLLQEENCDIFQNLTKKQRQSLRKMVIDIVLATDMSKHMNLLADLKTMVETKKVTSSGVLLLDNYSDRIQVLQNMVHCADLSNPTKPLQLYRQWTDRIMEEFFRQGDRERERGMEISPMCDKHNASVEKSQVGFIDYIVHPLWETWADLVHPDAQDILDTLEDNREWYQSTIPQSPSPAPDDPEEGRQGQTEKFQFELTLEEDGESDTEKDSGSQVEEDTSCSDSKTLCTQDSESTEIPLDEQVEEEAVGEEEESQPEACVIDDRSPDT
T1 sequence (P27815 1-647 isoform P27815-4): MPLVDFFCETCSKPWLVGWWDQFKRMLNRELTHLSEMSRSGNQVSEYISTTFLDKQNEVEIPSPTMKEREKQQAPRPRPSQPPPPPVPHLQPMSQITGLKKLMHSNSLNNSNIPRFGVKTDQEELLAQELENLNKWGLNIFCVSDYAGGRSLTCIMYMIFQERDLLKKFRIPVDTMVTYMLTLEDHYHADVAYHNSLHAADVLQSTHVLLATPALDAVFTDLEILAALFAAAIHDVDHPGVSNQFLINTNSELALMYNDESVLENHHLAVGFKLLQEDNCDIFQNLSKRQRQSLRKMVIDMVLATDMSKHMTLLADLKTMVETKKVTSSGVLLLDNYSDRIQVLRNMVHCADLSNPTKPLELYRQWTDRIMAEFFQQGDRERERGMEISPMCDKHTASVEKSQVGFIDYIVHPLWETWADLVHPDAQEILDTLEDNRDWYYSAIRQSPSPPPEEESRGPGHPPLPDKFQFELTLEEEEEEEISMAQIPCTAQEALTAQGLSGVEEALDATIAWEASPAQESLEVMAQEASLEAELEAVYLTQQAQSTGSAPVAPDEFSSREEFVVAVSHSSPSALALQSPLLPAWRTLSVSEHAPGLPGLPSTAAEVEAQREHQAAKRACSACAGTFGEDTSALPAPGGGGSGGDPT
T2 sequence (Q07343 whole entry): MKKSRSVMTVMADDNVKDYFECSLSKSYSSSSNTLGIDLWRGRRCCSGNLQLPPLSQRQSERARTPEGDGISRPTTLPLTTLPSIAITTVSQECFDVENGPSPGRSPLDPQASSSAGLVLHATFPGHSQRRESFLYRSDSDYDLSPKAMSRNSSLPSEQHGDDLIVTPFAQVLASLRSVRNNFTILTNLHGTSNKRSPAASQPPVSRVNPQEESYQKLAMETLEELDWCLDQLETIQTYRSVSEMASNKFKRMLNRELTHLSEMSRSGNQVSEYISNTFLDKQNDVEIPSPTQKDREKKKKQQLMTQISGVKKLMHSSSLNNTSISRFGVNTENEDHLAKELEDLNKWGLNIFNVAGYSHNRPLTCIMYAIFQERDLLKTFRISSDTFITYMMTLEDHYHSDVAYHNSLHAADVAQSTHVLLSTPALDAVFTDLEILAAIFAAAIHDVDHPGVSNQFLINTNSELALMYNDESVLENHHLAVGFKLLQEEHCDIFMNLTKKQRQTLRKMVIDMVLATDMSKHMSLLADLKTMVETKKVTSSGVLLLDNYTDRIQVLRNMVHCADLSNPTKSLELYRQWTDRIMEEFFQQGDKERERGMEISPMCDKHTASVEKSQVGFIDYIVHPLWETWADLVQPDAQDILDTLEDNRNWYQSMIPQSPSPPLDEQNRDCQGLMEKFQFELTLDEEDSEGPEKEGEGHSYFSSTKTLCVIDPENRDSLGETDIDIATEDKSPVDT

Compound | PDE4 A1 inhibitory effect at 20 nM [1] | PDE4 D2 inhibitory effect at 20 nM [2] | PDE4 B1 inhibitory effect at 20 nM [3]
CCOc1nc([C@@H](CS(C)(=O)=O)n2c(=O)[nH]c3cc(-c4ccccc4C)ccc32)ccc1OC [Ex. 139, (S)-1-(1-(6-ethoxy-5-methoxypyridin-2-yl)-2-(methylsulfonyl)ethyl)-5-(o-methylphenyl)-1H-benzo[d]imidazol-2(3H)-one] | + | + | +
CCOc1nc([C@@H](CS(C)(=O)=O)n2c(=O)n(C)c3cc(-c4ccccc4C)ccc32)ccc1OC [Ex. 140, (S)-1-(1-(6-ethoxy-5-methoxypyridin-2-yl)-2-(methylsulfonyl)ethyl)-5-(o-methylphenyl)-3-methyl-1H-benzo[d]imidazol-2(3H)-one] | + | + | +
CCOc1nc([C@H](CS(C)(=O)=O)n2c(=O)[nH]c3cc(-c4ccccc4C)ccc32)ccc1OC [Ex. 141, (R)-1-(1-(6-ethoxy-5-methoxypyridin-2-yl)-2-(methylsulfonyl)ethyl)-5-(o-methylphenyl)-1H-benzo[d]imidazol-2(3H)-one] | + | + | +
CCOc1nc([C@@H](CS(C)(=O)=O)n2c(=O)[nH]c3cc(-c4ccccc4Cl)ccc32)ccc1OC [Ex. 142, (S)-5-(2-chlorophenyl)-1-(1-(6-ethoxy-5-methoxypyridin-2-yl)-2-(methylsulfonyl)ethyl)-1H-benzo[d]imidazol-2(3H)-one] | + | + | +
CCOc1nc([C@@H](CS(C)(=O)=O)n2c(=O)[nH]c3cc(-c4ccccc4OC)ccc32)ccc1OC [Ex. 143, (S)-1-(1-(6-ethoxy-5-methoxypyridin-2-yl)-2-(methylsulfonyl)ethyl)-5-(2-methoxyphenyl)-1H-benzo[d]imidazol-2(3H)-one] | + | + | +
CCOc1nc([C@@H](CS(C)(=O)=O)n2c(=O)n(C)c3cc(-c4ccccc4OC)ccc32)ccc1OC [Ex. 144, (S)-1-(1-(6-ethoxy-5-methoxypyridin-2-yl)-2-(methylsulfonyl)ethyl)-5-(2-methoxyphenyl)-3-methyl-1H-benzo[d]imidazol-2(3H)-one] | + | + | +
CCOc1nc([C@H](CS(C)(=O)=O)n2c(=O)[nH]c3cc(-c4ccccc4OC)ccc32)ccc1OC [Ex. 145, (R)-1-(1-(6-ethoxy-5-methoxypyridin-2-yl)-2-(methylsulfonyl)ethyl)-5-(2-methoxyphenyl)-1H-benzo[d]imidazol-2(3H)-one] | − | − | −
CCOc1nc([C@@H](CS(C)(=O)=O)n2c(=O)[nH]c3cc(-c4ccccc4C(F)(F)F)ccc32)ccc1OC [Ex. 146, (S)-1-(1-(6-ethoxy-5-methoxypyridin-2-yl)-2-(methylsulfonyl)ethyl)-5-(2-(trifluoromethyl)phenyl)-1H-benzo[d]imidazol-2(3H)-one] | + | + | +
CCOc1nc([C@@H](CS(C)(=O)=O)n2c(=O)n(C)c3cc(-c4ccccc4C(F)(F)F)ccc32)ccc1OC [Ex. 147, (S)-1-(1-(6-ethoxy-5-methoxypyridin-2-yl)-2-(methylsulfonyl)ethyl)-5-(2-(trifluoromethyl)phenyl)-3-methyl-1H-benzo[d]imidazol-2(3H)-one] | + | + | +
CCOc1nc([C@@H](CS(C)(=O)=O)n2c(=O)[nH]c3cc(-c4ccccc4C4CC4)ccc32)ccc1OC [Ex. 148, (S)-5-(2-cyclopropylphenyl)-1-(1-(6-ethoxy-5-methoxypyridin-2-yl)-2-(methylsulfonyl)ethyl)-1H-benzo[d]imidazol-2(3H)-one] | + | + | +
CCOc1nc([C@@H](CS(C)(=O)=O)n2c(=O)[nH]c3c(C)c(-c4ccccc4C(C)C)ccc32)ccc1OC [Ex. 149, (S)-1-(1-(6-ethoxy-5-methoxypyridin-2-yl)-2-(methylsulfonyl)ethyl)-5-(2-isopropylphenyl)-4-methyl-1H-benzo[d]imidazol-2(3H)-one] | + | + | +
CCOc1nc([C@@H](CS(C)(=O)=O)n2c(=O)[nH]c3cc(-c4ccccc4CC)ccc32)ccc1OC [Ex. 150, (S)-1-(1-(6-ethoxy-5-methoxypyridin-2-yl)-2-(methylsulfonyl)ethyl)-5-(2-ethylphenyl)-1H-benzo[d]imidazol-2(3H)-one] | + | + | +
CCOc1nc([C@@H](CS(C)(=O)=O)n2c(=O)n(C)c3cc(-c4ccccc4CC)ccc32)ccc1OC [Ex. 151, (S)-1-(1-(6-ethoxy-5-methoxypyridin-2-yl)-2-(methylsulfonyl)ethyl)-5-(2-ethylphenyl)-3-methyl-1H-benzo[d]imidazol-2(3H)-one] | + | + | +
CCOc1nc([C@@H](CS(C)(=O)=O)n2c(=O)[nH]c3cc(-c4cccc(F)c4F)ccc32)ccc1OC [Ex. 152, (S)-5-(2,3-difluorophenyl)-1-(1-(6-ethoxy-5-methoxypyridin-2-yl)-2-(methylsulfonyl)ethyl)-1H-benzo[d]imidazol-2(3H)-one] | + | + | +
CCOc1nc([C@@H](CS(C)(=O)=O)n2c(=O)n(C)c3cc(-c4cccc(F)c4F)ccc32)ccc1OC [Ex. 153, (S)-5-(2,3-difluorophenyl)-1-(1-(6-ethoxy-5-methoxypyridin-2-yl)-2-(methylsulfonyl)ethyl)-3-methyl-1H-benzo[d]imidazol-2(3H)-one] | + | + | +
CCOc1nc([C@@H](CS(C)(=O)=O)n2c(=O)[nH]c3cc(-c4c(F)cccc4F)ccc32)ccc1OC [Ex. 154, (S)-5-(2,6-difluorophenyl)-1-(1-(6-ethoxy-5-methoxypyridin-2-yl)-2-(methylsulfonyl)ethyl)-1H-benzo[d]imidazol-2(3H)-one] | + | + | +
CCOc1nc([C@@H](CS(C)(=O)=O)n2c(=O)n(C)c3cc(-c4c(F)cccc4F)ccc32)ccc1OC [Ex. 155, (S)-5-(2,6-difluorophenyl)-1-(1-(6-ethoxy-5-methoxypyridin-2-yl)-2-(methylsulfonyl)ethyl)-3-methyl-1H-benzo[d]imidazol-2(3H)-one] | + | + | +
CCOc1nc([C@@H](CS(C)(=O)=O)n2c(=O)[nH]c3cc(-c4ccc(F)cc4F)ccc32)ccc1OC [Ex. 156, (S)-5-(2,4-difluorophenyl)-1-(1-(6-ethoxy-5-methoxypyridin-2-yl)-2-(methylsulfonyl)ethyl)-1H-benzo[d]imidazol-2(3H)-one] | + | + | +
CCOc1nc([C@@H](CS(C)(=O)=O)n2c(=O)n(C)c3cc(-c4ccc(F)cc4F)ccc32)ccc1OC [Ex. 157, (S)-5-(2,4-difluorophenyl)-1-(1-(6-ethoxy-5-methoxypyridin-2-yl)-2-(methylsulfonyl)ethyl)-3-methyl-1H-benzo[d]imidazol-2(3H)-one] | + | + | +
CCOc1nc([C@@H](CS(C)(=O)=O)n2c(=O)[nH]c3cc(-c4cc(F)c(F)cc4F)ccc32)ccc1OC [Ex. 158, (S)-5-(2,4,5-trifluorophenyl)-1-(1-(6-ethoxy-5-methoxypyridin-2-yl)-2-(methylsulfonyl)ethyl)-1H-benzo[d]imidazol-2(3H)-one] | + | + | +
CCOc1nc([C@@H](CS(C)(=O)=O)n2c(=O)n(C)c3cc(-c4cc(F)c(F)cc4F)ccc32)ccc1OC [Ex. 159, (S)-5-(2,4,5-trifluorophenyl)-1-(1-(6-ethoxy-5-methoxypyridin-2-yl)-2-(methylsulfonyl)ethyl)-3-methyl-1H-benzo[d]imidazol-2(3H)-one] | + | + | +
CCOc1nc([C@@H](CS(C)(=O)=O)n2c(=O)[nH]c3cc(-c4cc(F)ccc4F)ccc32)ccc1OC [Ex. 160, (S)-5-(2,5-difluorophenyl)-1-(1-(6-ethoxy-5-methoxypyridin-2-yl)-2-(methylsulfonyl)ethyl)-1H-benzo[d]imidazol-2(3H)-one] | + | + | +
CCOc1nc([C@@H](CS(C)(=O)=O)n2c(=O)n(C)c3cc(-c4cc(F)ccc4F)ccc32)ccc1OC [Ex. 161, (S)-5-(2,5-difluorophenyl)-1-(1-(6-ethoxy-5-methoxypyridin-2-yl)-2-(methylsulfonyl)ethyl)-3-methyl-1H-benzo[d]imidazol-2(3H)-one] | + | + | +
